Reference: DBAASP
In brackets after ≈: the same amount, converted by molar mass.

Legend:
Test in all cases: ≥ marks a high value that may be exact or a test limit, other limits are often not marked, values filed in µg/mL are converted to µM
[1] = system: Acinetobacter baumannii AbR-215
[2] = system: Escherichia coli ATCC 8739
[3] = system: Acinetobacter baumannii Ab41
Staphylococcus aureus = system: Staphylococcus aureus
[4] = system: Salmonella typhimurium CMCC 50013
[5] = system: Escherichia coli ATCC 25922
[6] = system: Staphylococcus aureus ATCC 29213
[7] = system: Bacillus subtilis KCTC 3068
[8] = system: Streptococcus mutans UA159
[9] = system: Streptococcus sobrinus ATCC 6715
[10] = system: Streptococcus sanguinis ATCC 10556
[11] = system: Pseudomonas aeruginosa PAO1
[12] = system: Staphylococcus aureus USA 300
[13] = system: Staphylococcus aureus USA 300 LAC
[14] = system: Klebsiella pneumoniae ATCC 13883
[15] = system: Mycobacterium tuberculosis WXY
[16] = system: Mycobacterium tuberculosis CAS3
[17] = system: Mycobacterium tuberculosis FYX
[18] = system: Acinetobacter baumannii ATCC 9955
[19] = system: Staphylococcus aureus ATCC 33592
[20] = system: Klebsiella pneumoniae ATCC BAA-1705
[21] = system: Klebsiella pneumoniae ATCC 33495
[22] = system: Enterococcus faecalis ATCC 22192
[23] = system: Escherichia coli ATCC 4157
[24] = system: Pseudomonas aeruginosa ATCC 27853
[25] = system: Candida albicans ATCC 10231
Acinetobacter baumannii = system: Acinetobacter baumannii
Klebsiella pneumoniae = system: Klebsiella pneumoniae
[26] = system: Pseudomonas aeruginosa ATCC BAA-2110
[27] = system: Escherichia coli ATCC 51659
[28] = system: Pseudomonas aeruginosa ATCC 9027
[29] = system: Acinetobacter baumannii ATCC BAA-1794
[30] = system: Staphylococcus epidermidis
[31] = system: Enterococcus faecalis ATCC 51299
[32] = system: Staphylococcus aureus ATCC 25923
Candida albicans = system: Candida albicans
Pseudomonas aeruginosa = system: Pseudomonas aeruginosa
Escherichia coli = system: Escherichia coli
[33] = system: Staphylococcus aureus ATCC BAA-44
[34] = system: Staphylococcus aureus ATCC 700698
[35] = system: Klebsiella pneumoniae ATCC 27736
Cryptococcus neoformans = system: Cryptococcus neoformans
Sporothrix schenckii = system: Sporothrix schenckii
[36] = system: Pseudomonas aeruginosa ATCC BAA-427
[37] = system: Escherichia coli ATCC 9637
[38] = system: Bacillus subtilis ATCC 6633
[39] = system: Candida parapsilosis ATCC 22019
[40] = system: Staphylococcus aureus ATCC 700699

CC(C)C[C@H](NC(=O)[C@H](CCCCN)NC(=O)[C@H](C)NC(=O)[C@H](C)NC(=O)[C@H](C)NC(=O)[C@H](C)NC(=O)[C@H](C)NC(=O)[C@H](C)NC(=O)[C@H](CCCCN)NC(=O)[C@H](CC(C)C)NC(=O)[C@H](C)NC(=O)[C@H](C)NC(=O)[C@H](CCCCN)NC(=O)[C@H](C)NC(=O)[C@H](C)NC(=O)[C@H](CCCCN)NC(=O)[C@H](C)NC(=O)[C@H](C)NC(=O)[C@H](CC(C)C)NC(=O)[C@H](CCCCN)NC(=O)[C@H](C)NC(=O)[C@H](C)NC(=O)[C@H](C)NC(=O)[C@H](C)NC(=O)[C@H](C)NC(=O)[C@H](C)NC(=O)[C@H](CCCCN)NC(=O)[C@@H](N)CC(C)C)C(=O)O [LKAAAAAAKLAAKAAKAALKAAAAAAKL]
MIC [1]: 3.2 µM (≈ 8.06 µg/mL)
MIC [2]: 3.2 µM (≈ 8.06 µg/mL)
MIC [3]: 3.2 µM (≈ 8.06 µg/mL)
MIC (Staphylococcus aureus): ≥ 80.6 µM

NCCCC[C@H](NC(=O)[C@H](CCCN=C(N)N)NC(=O)CNC(=O)[C@@H](N)Cc1ccc(O)cc1)C(=O)N[C@@H](CCCCN)C(=O)N[C@@H](CCCN=C(N)N)C(=O)N[C@@H](CCCN=C(N)N)C(=O)N[C@@H](CCC(N)=O)C(=O)N[C@@H](CCCN=C(N)N)C(=O)N[C@@H](CCCN=C(N)N)C(=O)N[C@@H](CCCN=C(N)N)C(=O)O [YGRKKRRQRRR]
MIC [4]: 29 µM (≈ 45.2 µg/mL)
MIC [5]: 15.5 µM (≈ 24.1 µg/mL)
MIC [6]: 16.6 µM (≈ 25.9 µg/mL)
MIC [7]: 26.4 µM (≈ 41.2 µg/mL)

NCCCC[C@H](NC(=O)CNC(=O)[C@H](CCCCN)NC(=O)[C@H](CCCCN)NC(=O)[C@H](Cc1ccccc1)NC(=O)[C@H](Cc1ccccc1)NC(=O)[C@H](CCCCN)NC(=O)[C@H](CCCCN)NC(=O)[C@H](Cc1ccccc1)NC(=O)[C@H](Cc1ccccc1)NC(=O)[C@H](CCCCN)NC(=O)CNC(=O)[C@@H](N)Cc1c[nH]c2ccccc12)C(=O)O [WGKFFKKFFKKGK]
MIC [8]: ≥ 38.2 µM
MIC [9]: ≥ 38.2 µM
MIC [10]: ≥ 153 µM

CC[C@H](C)[C@H](NC(=O)[C@H](CCCN=C(N)N)NC(=O)[C@H](CCCN=C(N)N)NC(=O)[C@H](CC(C)C)NC(=O)[C@H](Cc1c[nH]c2ccccc12)NC(=O)[C@H](CCCN=C(N)N)NC(=O)[C@@H](N)Cc1c[nH]c2ccccc12)C(=O)N[C@@H](Cc1c[nH]c2ccccc12)C(N)=O [WRWLRRIW]
MIC [11]: 6.2 µM (≈ 7.88 µg/mL)
MIC [12]: 6.2 µM (≈ 7.88 µg/mL)
MIC [5]: 25 µM (≈ 31.8 µg/mL)
MIC [13]: 6.2 µM (≈ 7.88 µg/mL)
MIC [14]: 25 µM (≈ 31.8 µg/mL)

CSCC[C@H](NC(=O)[C@H](CCCCN)NC(=O)[C@H](CCCCN)NC(=O)[C@H](CC(C)C)NC(=O)[C@H](CC(C)C)NC(=O)[C@H](CCCCN)NC(=O)[C@H](CCCCN)NC(=O)[C@H](CC(C)C)NC(=O)[C@H](CC(C)C)NC(=O)[C@@H](N)CCSC)C(=O)O [MLLKKLLKKM]
MIC [15]: ≥ 60.2 µM
MIC [16]: ≥ 120 µM
MIC [17]: ≥ 60.2 µM

CC[C@H](C)[C@H](NC(=O)[C@H](CCCCN)NC(=O)[C@H](CCCN=C(N)N)NC(=O)[C@H](CCCN=C(N)N)NC(=O)[C@H](CC(C)C)NC(=O)[C@H](CCCCN)NC(=O)[C@H](CCCCN)NC(=O)[C@H](Cc1ccccc1)NC(=O)[C@H](CC(C)C)NC(=O)CN)C(=O)N[C@@H](CCCCN)C(=O)N[C@@H](CCCCN)C(=O)NCC(=O)N[C@@H](Cc1ccccc1)C(=O)N[C@@H](CCCCN)C(=O)N[C@@H](CCCCN)C(=O)N[C@H](C(=O)N[C@@H](Cc1ccccc1)C(=O)N[C@@H](CCCCN)C(=O)N[C@@H](CCCN=C(N)N)C(=O)N[C@@H](CC(C)C)C(=O)O)[C@@H](C)CC [GLFKKLRRKIKKGFKKIFKRL]
MIC [18]: 15.9 µM (≈ 42 µg/mL)
MIC [19]: 10.6 µM (≈ 28 µg/mL)
MIC [20]: 10.6 µM (≈ 28 µg/mL)
MIC [21]: 1.97 µM (≈ 5.2 µg/mL)
MIC [22]: 15.9 µM (≈ 42 µg/mL)
MIC [23]: 7.97 µM (≈ 21 µg/mL)
MIC [24]: 24.3 µM (≈ 64 µg/mL)
MIC [25]: > 48.6 µM
MIC (Acinetobacter baumannii): 12.2 µM (≈ 32 µg/mL)
MIC [5]: 12.2 µM (≈ 32 µg/mL)
MIC (Klebsiella pneumoniae): 48.6 µM (≈ 128 µg/mL)
MIC [26]: 15.9 µM (≈ 42 µg/mL)
MIC [27]: ≥ 53.2 µM
MIC [6]: 48.6 µM (≈ 128 µg/mL)
MIC [14]: 24.3 µM (≈ 64 µg/mL)
MIC [28]: 3.8 µM (≈ 10 µg/mL)
MIC [29]: 3.8 µM (≈ 10 µg/mL)
MIC [30]: 24.3 µM (≈ 64 µg/mL)
MIC [31]: 15.9 µM (≈ 42 µg/mL)
MIC [32]: 10.6 µM (≈ 28 µg/mL)
MIC (Candida albicans): > 48.6 µM
MIC (Pseudomonas aeruginosa): 8.59 µM (≈ 22.6 µg/mL)
MIC (Staphylococcus aureus): 24.3 µM (≈ 64 µg/mL)
MIC (Escherichia coli): 34.4 µM (≈ 90.5 µg/mL)

CC[C@H](C)[C@H](NC(=O)[C@H](C)NC(=O)[C@H](CCCCN)NC(=O)CNC(=O)[C@H](C)NC(=O)[C@H](Cc1cnc[nH]1)NC(=O)[C@@H](NC(=O)[C@H](C)NC(=O)[C@@H]1CCCN1C(=O)[C@H](CCCCN)NC(=O)[C@@H](NC(=O)[C@H](CC(C)C)NC(=O)[C@H](Cc1c[nH]c2ccccc12)NC(=O)CNC(=O)[C@H](Cc1ccccc1)NC(=O)[C@@H](N)Cc1ccccc1)[C@@H](C)CC)[C@@H](C)CC)C(=O)N[C@@H](Cc1cnc[nH]1)C(=O)NCC(=O)N[C@@H](CC(C)C)C(=O)N[C@H](C(=O)N[C@@H](Cc1cnc[nH]1)C(=O)N[C@@H](CCCN=C(N)N)C(=O)N[C@@H](CCCN=C(N)N)C(=O)N[C@@H](CCCN=C(N)N)C(=O)N[C@@H](Cc1cnc[nH]1)C(=O)O)[C@@H](C)CC [FFGWLIKPAIHAGKAIHGLIHRRRH]
MIC [33]: 1.6 µM (≈ 4.69 µg/mL)
MIC [34]: 1.6 µM (≈ 4.69 µg/mL)
MIC [35]: 3.3 µM (≈ 9.68 µg/mL)
MIC [19]: 0.8 µM (≈ 2.35 µg/mL)
MIC (Cryptococcus neoformans): 6.8 µM (≈ 19.9 µg/mL)
MIC (Sporothrix schenckii): 13.6 µM (≈ 39.9 µg/mL)
MIC [36]: 6.8 µM (≈ 19.9 µg/mL)
MIC [25]: 3 µM (≈ 8.8 µg/mL)
MIC [37]: 3.3 µM (≈ 9.68 µg/mL)
MIC [38]: 3 µM (≈ 8.8 µg/mL)
MIC [6]: 1.6 µM (≈ 4.69 µg/mL)
MIC [39]: 6.8 µM (≈ 19.9 µg/mL)
MIC [40]: 1.6 µM (≈ 4.69 µg/mL)
MIC [32]: 3 µM (≈ 8.8 µg/mL)
